pIC50, pKi: −log10 of the molar value.

These results are taken from patent US20230293517A1, “ANTAGONIST COMPOUNDS” (AdoRx Therapeutics Limited, priority 2020, published 2023).

The target in experiment [1] is human Adenosine A2b receptor (Homo sapiens (Human), UniProt P29275). Description: Adenosine receptor TR-FRET binding assay (A2b). The conditions noted are these: TR-FRET, inhibition of binding of 30 nM CA200645, CHO cell membranes. Put shortly: (§1)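 Compounds were serially diluted 1:3 in DMSO, then incubated with CHO membranes bearing Tb-tagged human receptor plus CA200645 (A2b 30 nM; A1, A2a, A3 100 nM) for 2 h at room temperature. Time-resolved FRET was read, non-specific binding subtracted using 10 μM XAC, and Ki calculated.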
Background: TR-FRET usually uses a lanthanide donor and a delayed reading to cut background.

Experiment [2] addresses human Adenosine A2a receptor (Homo sapiens (Human), UniProt P29274). Description: Adenosine receptor TR-FRET binding assay (A2a). The settings on record: inhibition of binding of 100 nM CA200645, CHO cell membranes. Put shortly: as §1
In experiment [3] the target is human Adenosine A3 receptor (Homo sapiens (Human), UniProt P0DMS8). Description: Adenosine receptor TR-FRET binding assay (A3). The conditions noted are these: inhibition of binding of 100 nM CA200645, CHO cell membranes. Put shortly:
as §1

Experiment [4] addresses human Adenosine A1 receptor (Homo sapiens (Human), UniProt P30542). Description: Adenosine receptor TR-FRET binding assay (A1). The settings on record: inhibition of binding of 100 nM CA200645, CHO cell membranes. A digest of the protocol: as §1
The subject of experiment [5] is CD8+T cells in human whole blood. Description: Measurement of pCREB in CD8+T cells in human whole blood. It counts as cell-based. The conditions noted are these: 3 μM NECA, rolipram. The procedure: Biological Example—Measurement of pCREB in CD8+T Cells in Human Whole Blood
Heparinised human whole blood was pre-incubated at 37° C. with serial dilutions of A2a antagonists for 20 min. and the phosphodiesterase inhibitor rolipram to amplify the pCREB response. The adenosine receptor agonist NECA is then added at a final concentration of 3 μM and following a 60 min incubation the blood is fixed and red blood cells lysed. White blood cells are isolated, permeabilized and stained with directly conjugated fluorescent antibodies to phospho-CREB (Alexa Fluor 488) and CD8 (Alexa Fluor 647) and the level of phospho-CREB in CD8+T cells is measured by FACS using a BD Accuri C6 Flow Cytometer.

The subject of experiment [6] is human PBMCs. Description: CD3/CD28 stimulated IL-2 release NECA reversal assay in human PBMCs. In kind it is cell-based. The settings on record: PBMC, 1 uM NECA, 24 hours, IL-2 in culture supernatant. The procedure:
Biological Example—CD3/CD28 Stimulated IL-2 Release NECA Reversal Assay in Human PBMCs
Blood is drawn from healthy volunteers using sodium citrate as the anticoagulant (0.3% final concentration). After centrifugation of the blood over Histopaque-1077, PBMCs are collected from the Histopaque/plasma interface and washed twice in PBS (300 g for 10 mins at room temp). Cells are plated at 50,000 cells/well in 150 μl RPMI/10% FCS in 96-well cell culture plates that have been precoated with 1 ug/ml CD3 antibody. 50 μl diluted compound mix is added to the cells, to obtain final concentrations of 1 ug/ml CD28 antibody, 1 uM NECA and 0.003-10 μM adenosine receptor antagonist. Assay plates are incubated for 24 hours at 37° C. in a humidified incubator. Culture supernatant is tested for IL-2 levels using the human IL-2 Tissue Culture Kit (Meso Scale Discovery). Data for dose-response curves is calculated as % inhibition with 100% inhibition defined from no agonist control wells (+CD3/28-NECA)

Sequence of human Adenosine A2a receptor (P29274 whole entry): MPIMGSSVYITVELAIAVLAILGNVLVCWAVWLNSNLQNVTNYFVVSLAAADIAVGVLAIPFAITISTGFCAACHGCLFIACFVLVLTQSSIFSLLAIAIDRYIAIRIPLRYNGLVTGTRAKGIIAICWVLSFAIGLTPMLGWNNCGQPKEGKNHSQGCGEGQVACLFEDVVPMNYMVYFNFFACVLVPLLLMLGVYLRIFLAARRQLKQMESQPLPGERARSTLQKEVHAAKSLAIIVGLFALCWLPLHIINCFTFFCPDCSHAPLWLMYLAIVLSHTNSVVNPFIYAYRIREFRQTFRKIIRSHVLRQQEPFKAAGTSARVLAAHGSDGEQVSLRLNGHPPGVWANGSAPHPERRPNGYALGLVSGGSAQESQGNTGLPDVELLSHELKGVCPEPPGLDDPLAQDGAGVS
Sequence of human Adenosine A2b receptor (P29275 whole entry): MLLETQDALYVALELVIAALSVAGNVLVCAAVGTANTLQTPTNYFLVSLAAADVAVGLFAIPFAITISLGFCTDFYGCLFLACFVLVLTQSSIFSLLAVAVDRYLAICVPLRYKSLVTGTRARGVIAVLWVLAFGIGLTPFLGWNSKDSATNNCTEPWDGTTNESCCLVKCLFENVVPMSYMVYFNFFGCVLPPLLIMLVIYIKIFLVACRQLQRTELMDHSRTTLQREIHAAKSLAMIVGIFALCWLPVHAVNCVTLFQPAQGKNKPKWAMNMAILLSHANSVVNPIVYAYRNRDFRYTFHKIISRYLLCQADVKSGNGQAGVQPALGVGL
Sequence of human Adenosine A3 receptor (P0DMS8 whole entry): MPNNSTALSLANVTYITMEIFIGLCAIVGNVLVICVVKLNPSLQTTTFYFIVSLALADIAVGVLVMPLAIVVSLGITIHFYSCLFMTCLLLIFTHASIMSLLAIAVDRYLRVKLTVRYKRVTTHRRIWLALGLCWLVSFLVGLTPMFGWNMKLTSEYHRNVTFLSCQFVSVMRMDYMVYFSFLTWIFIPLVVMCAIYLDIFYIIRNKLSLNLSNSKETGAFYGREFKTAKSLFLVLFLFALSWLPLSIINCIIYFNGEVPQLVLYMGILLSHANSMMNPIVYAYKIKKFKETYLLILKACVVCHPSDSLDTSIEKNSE
Sequence of human Adenosine A1 receptor (P30542 whole entry): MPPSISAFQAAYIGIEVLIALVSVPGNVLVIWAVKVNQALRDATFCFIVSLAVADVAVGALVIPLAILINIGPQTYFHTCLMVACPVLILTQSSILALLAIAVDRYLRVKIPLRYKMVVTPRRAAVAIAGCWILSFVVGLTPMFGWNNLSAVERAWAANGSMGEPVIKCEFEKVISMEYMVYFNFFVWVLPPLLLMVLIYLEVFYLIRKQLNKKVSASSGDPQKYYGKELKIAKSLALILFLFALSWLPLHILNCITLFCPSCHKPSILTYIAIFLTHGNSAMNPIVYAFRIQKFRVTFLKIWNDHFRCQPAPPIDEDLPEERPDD

Regarding `Cc1cc(-c2sc(NC(=O)N3CCNCC3)nc2-c2cccc(C#N)c2)cc(Cl)n1` [Example 3.1], the pKi in experiment [1] was 8.18; in experiment [2], 8.51; in experiment [3], 6.57; in experiment [4], 7.03. Also, the pIC50 is 5.75 in experiment [5] and 7.89 in experiment [6].
Consider `Cc1cc(-c2sc(NC(=O)N3CC(O)C3)nc2-c2cccc(C#N)c2)cc(C)n1` [Example 4.30, N-[4-(3-Cyanophenyl)-5-(2,6-dimethyl-4-pyridyl)thiazol-2-yl]-3-hydroxy-azetidine-1-carboxamide], for which the pKi was 9.22 in experiment [1], 9.39 in experiment [2], 6.97 in experiment [3] and 8.15 in experiment [4]. Besides, the values for the pIC50 in experiment [5] and in experiment [6] were 7.22 and 8.89, respectively.
Take `Cc1cc(-c2sc(NC(=O)N3CCS(=N)(=O)CC3)nc2-c2cccc(C#N)c2)cc(Cl)n1` [Example 3.12]: the pKi in experiment [1] was 9.00; in experiment [2], 9.60; in experiment [3] it was 6.27; in experiment [4], 7.74. The pIC50 was 6.22 in experiment [5] and 8.10 in experiment [6].
Regarding `Cc1cc(-c2sc(NC(=O)N3CCS(=N)(=O)CC3)nc2-c2cccc(C#N)c2)cc(C(F)F)n1` [Example 16.1], the pKi is 8.66 in experiment [1], 9.54 in experiment [2], 6.59 in experiment [3] and 7.66 in experiment [4]. Also, the pIC50 in experiment [5] was 6.92; in experiment [6] it was 8.17.
Take `Cc1cc(-c2sc(NC(=O)N3CCC4(CC3)NC(=O)NC4=O)nc2-c2cccc(C#N)c2)cc(C)n1` [Example 4.20, N-[4-(3-Cyanophenyl)-5-(2,6-dimethyl-4-pyridyl)thiazol-2-yl]-2,4-dioxo-1,3,8-triazaspiro[4.5]decane-8-carboxamide]: the pKi was 8.59 in experiment [1], 8.82 in experiment [2], 6.01 in experiment [3] and 6.79 in experiment [4]. Besides, the negative-log IC50 (pIC50) in experiment [5] is 6.89; in experiment [6], 8.89.
Take `Cc1cc(-c2sc(NC(=O)N3CCC4(CCOC(=O)N4)CC3)nc2-c2cccc(C#N)c2)cc(C)n1` [Example 6.50, N-[4-(3-Cyanophenyl)-5-(2,6-dimethyl-4-pyridyl)thiazol-2-yl]-2-oxo-3-oxa-1,9-diazaspiro[5.5]undecane-9-carboxamide]: the pKi in experiment [1] is 8.47; in experiment [2], 8.79; in experiment [3] it was 6.33; in experiment [4], 6.87. The pIC50 was 6.72 in experiment [5] and 8.44 in experiment [6].
On to `Cc1cc(-c2sc(NC(=O)N3CC[C@@H](C#N)C3)nc2-c2cccc(C#N)c2)cc(C)n1` [Example 4.10, (3R)-3-Cyano-N-[4-(3-cyanophenyl)-5-(2,6-dimethyl-4-pyridyl)thiazol-2-yl]pyrrolidine-1-carboxamide], for which the pKi in experiment [1] was 8.60; in experiment [2], 9.42; in experiment [3], 6.80; in experiment [4], 7.30. The pIC50 is 7.00 in experiment [5] and 8.54 in experiment [6].
On to `Cc1cc(-c2sc(NC(=O)N3CCC(N4CCNC4=O)CC3)nc2-c2cccc(C#N)c2)cc(C)n1` [Example 6.30, N-[4-(3-Cyanophenyl)-5-(2,6-dimethyl-4-pyridyl)thiazol-2-yl]-4-(2-oxoimidazolidin-1-yl)piperidine-1-carboxamide], for which the pKi in experiment [1] is 8.70; in experiment [2], 9.09; in experiment [3], 6.73; in experiment [4] it was 7.01. Also, the negative-log IC50 (pIC50) was 6.28 in experiment [5] and 8.16 in experiment [6].
For the molecule `Cc1cc(-c2sc(NC(=O)N3CCC4(CCOCC4)C3)nc2-c2cccc(C#N)c2)cc(C)n1` [Example 6.29, N-[4-(3-Cyanophenyl)-5-(2,6-dimethyl-4-pyridyl)thiazol-2-yl]-8-oxa-2-azaspiro[4.5]decane-2-carboxamide], the pKi was 8.47 in experiment [1], 9.02 in experiment [2], 6.20 in experiment [3] and 6.64 in experiment [4]. For the same molecule, the pIC50 in experiment [5] was 6.29; in experiment [6], 8.28.
For `Cc1cc(-c2sc(NC(=O)N3CCC4(CC3)CNC(=O)C4)nc2-c2cccc(C#N)c2)cc(C)n1` [Example 6.4, N-[4-(3-Cyanophenyl)-5-(2,6-dimethyl-4-pyridyl)thiazol-2-yl]-3-oxo-2,8-diazaspiro[4.5]decane-8-carboxamide], the negative-log Ki (pKi) is 8.51 in experiment [1], 9.17 in experiment [2], 6.44 in experiment [3] and 6.99 in experiment [4]. Moreover, the values for the pIC50 in experiment [5] and in experiment [6] were 6.72 and 8.85, respectively.
Regarding `Cc1cc(-c2sc(NC(=O)N3CCC4(CC3)CNC(=O)N4)nc2-c2cccc(C#N)c2)cc(C)n1` [Example 6.11, N-[4-(3-Cyanophenyl)-5-(2,6-dimethyl-4-pyridyl)thiazol-2-yl]-2-oxo-1,3,8-triazaspiro[4.5]decane-8-carboxamide], the pKi is 8.59 in experiment [1], 9.41 in experiment [2], 6.50 in experiment [3] and 7.38 in experiment [4]. The pIC50 in experiment [5] is 7.30; in experiment [6], 8.28.
As for `Cc1cc(-c2sc(NC(=O)N3CCC4(CC3)CC(=O)N(C)C4)nc2-c2cccc(C#N)c2)cc(C)n1` [Example 6.38, N-[4-(3-Cyanophenyl)-5-(2,6-dimethyl-4-pyridyl)thiazol-2-yl]-2-methyl-3-oxo-2,8-diazaspiro[4.5]decane-8-carboxamide], the pKi was 8.44 in experiment [1], 9.08 in experiment [2], 6.56 in experiment [3] and 6.77 in experiment [4]. The pIC50 was 6.24 in experiment [5] and 8.22 in experiment [6].
As for `Cc1cc(-c2sc(NC(=O)N3CCN4C(=O)NCCC4C3)nc2-c2cccc(C#N)c2)cc(C)n1` (stereo not drawn) [Example 6.42, N-[4-(3-Cyanophenyl)-5-(2,6-dimethyl-4-pyridyl)thiazol-2-yl]-6-oxo-3,4,7,8,9,9a-hexahydro-1H-pyrazino[1,2-c]pyrimidine-2-carboxamide], the pKi is 8.05 in experiment [1], 9.41 in experiment [2], 6.36 in experiment [3] and 7.36 in experiment [4]. Moreover, the pIC50 in experiment [5] is 6.89; in experiment [6], 8.30.
Take `Cc1cc(-c2sc(NC(=O)N3CCC(C(C)(C)O)C3)nc2-c2cccc(C#N)c2)cc(Cl)n1` (stereo not drawn) [Example 2, N-[5-(2-Chloro-6-methyl-4-pyridyl)-4-(3-cyanophenyl)thiazol-2-yl]-3-(1-hydroxy-1-methyl-ethyl)pyrrolidine-1-carboxamide]: the pKi is 9.00 in experiment [1], 9.40 in experiment [2], 6.07 in experiment [3] and 6.63 in experiment [4]. Also, the pIC50 in experiment [5] was 6.55; in experiment [6] it was 8.70.
In the case of `Cc1cc(-c2sc(NC(=O)N3CCN[C@H](C(C)(C)O)C3)nc2-c2cccc(C#N)c2)cc(Cl)n1` [Example 3.9], the pKi is 8.66 in experiment [1], 9.31 in experiment [2], 6.47 in experiment [3] and 7.09 in experiment [4]. In addition, the pIC50 is 6.33 in experiment [5] and 7.75 in experiment [6].
As for `Cc1cc(-c2sc(NC(=O)N3CCN[C@H](C)C3)nc2-c2cccc(C#N)c2)cc(C)n1` [Example 7.1, (3R)—N-[4-(3-Cyanophenyl)-5-(2,6-dimethyl-4-pyridyl)thiazol-2-yl]-3-methyl-piperazine-1-carboxamide], the pKi in experiment [1] is 8.12; in experiment [2], 9.00; in experiment [3] it was 6.38; in experiment [4] it was 7.33. The figures for the pIC50 in experiment [5] and in experiment [6] were 6.19 and 7.69, respectively.
With `Cc1cc(-c2sc(NC(=O)N3CCN(S(C)(=O)=O)CC3)nc2-c2cccc(C#N)c2)cc(C)n1` [Example 4.18, N-[4-(3-cyanophenyl)-5-(2,6-dimethyl-4-pyridyl)thiazol-2-yl]-4-methylsulfonyl-piperazine-1-carboxamide], the pKi is 8.64 in experiment [1], 9.22 in experiment [2], 6.38 in experiment [3] and 7.03 in experiment [4]. In addition, the pIC50 is 6.46 in experiment [5] and 8.21 in experiment [6].

A word on the pKi: it is the Ki on a negative log10 scale, so that one unit is a factor of ten. One may read the pIC50 as the negative decadic logarithm of the IC50, by convention in mol/L.
